Columns and labels:
[1] = molecular target: CYP1A2 (Homo sapiens (Human), UniProt P05177); test: Inhibition of human liver microsome CYP450 enzyme, CYP1A2 phenacetin site; assay type: in vitro ADME; settings: human liver microsomes, probe substrate phenacetin
Description: (§1) I. Materials and Instruments • 1. Phosphate buffered saline (20×PBS, purchased from Sangon); • 2. NADPH (ACROS, A2646-71-1); • 3. Human liver microsome (Corning Gentest, Cat No. 452161, Lot No. 905002, Donor35); • 4. ABI QTrap 4000 LC-MS System (AB Sciex); • 5. ZORBAX Extend-C18, 3×50 mm, 3.5 μm (Agilent, USA); • 6. CYP probe substrate.
(§2) An appropriate amount of human liver microsome stock solution (20 mg/mL) was diluted to obtain a 0.25 mg/mL microsome solution with 7.5 mM MgCl2 solution for later use (prepared right before use).
(§3) b. An appropriate amount of the stock solution was precisely pipetted, and diluted into series solution I at the concentrations of 10 mM, 3 mM, 1 mM, 0.3 mM, 0.03 mM and 0.003 mM with an appropriate amount of DMSO solution. An appropriate amount of the above series solution I was precisely pipetted, and diluted to obtain series solution II at the concentrations of 3 mM, 1 mM, 0.3 mM, 0.1 mM, 0.03 mM, 0.003 mM and 0.0003 mM with an appropriate amount of acetonitrile. An appropriate amount of the above series solution II was precisely pipetted, and diluted with PBS to obtain a working solution at the concentrations of 150 μM, 50 μM, 15 μM, 5 μM, 1.5 μM, 0.15 μM and 0.015 μM for later use.
(§4) 3. Procedures • 1) 40 μL of human liver microsome solution (0.25 mg/mL), 20 μL of probe substrate solution and 20 μL of test compound solution were precisely pipetted into a 96-well plate and pre-incubated for 5 min under a water bath at 37° C. • 2) After 5 min of pre-incubation, the mixture was taken out, 20 μL of 5 mM NADPH solution was added to initiate the reaction, and the resulting mixture was incubated for 30 min under a water bath at 37° C. […]
(§5) The values were calculated by Graphpad Prism to obtain the IC50 values for the inhibition of drugs on CYP1A2 phenacetin, CYP2C19 (S)-mephenytoin and CYP3A4M midazolam sites of metabolism in human liver microsomes, as shown in Table 7.

[2] = molecular target: CYP2C19 (Homo sapiens (Human), UniProt P33261); test: Inhibition of human liver microsome CYP450 enzyme, CYP2C19 (S)-mephenytoin site; assay type: in vitro ADME; settings: human liver microsomes, probe substrate (S)-mephenytoin
Chain of CYP2C19 (P33261 whole entry): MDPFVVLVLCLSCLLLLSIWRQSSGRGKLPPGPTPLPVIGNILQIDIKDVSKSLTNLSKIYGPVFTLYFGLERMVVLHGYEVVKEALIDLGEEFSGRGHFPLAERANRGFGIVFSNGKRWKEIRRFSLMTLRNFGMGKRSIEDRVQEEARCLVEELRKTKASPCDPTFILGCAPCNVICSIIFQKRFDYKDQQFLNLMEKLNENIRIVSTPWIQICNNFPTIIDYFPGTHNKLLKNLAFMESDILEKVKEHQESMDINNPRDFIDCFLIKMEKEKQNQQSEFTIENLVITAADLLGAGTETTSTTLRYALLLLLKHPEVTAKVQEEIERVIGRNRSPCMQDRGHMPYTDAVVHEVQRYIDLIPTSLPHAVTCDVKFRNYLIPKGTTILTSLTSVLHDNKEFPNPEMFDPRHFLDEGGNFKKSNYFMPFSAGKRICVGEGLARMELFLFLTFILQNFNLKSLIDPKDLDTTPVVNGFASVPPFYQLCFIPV
Description: as §1, §2, §3, §4, §5

[3] = molecular target: hERG potassium channel (Homo sapiens (Human), UniProt Q12809); test: Blocking effect on hERG potassium currents, manual patch-clamp in CHO cells stably expressing hERG channel; assay type: cell-based; settings: read-out: IC50 for the blocking effect on the hERG potassium ion channel
Chain of hERG potassium channel (Q12809 whole entry): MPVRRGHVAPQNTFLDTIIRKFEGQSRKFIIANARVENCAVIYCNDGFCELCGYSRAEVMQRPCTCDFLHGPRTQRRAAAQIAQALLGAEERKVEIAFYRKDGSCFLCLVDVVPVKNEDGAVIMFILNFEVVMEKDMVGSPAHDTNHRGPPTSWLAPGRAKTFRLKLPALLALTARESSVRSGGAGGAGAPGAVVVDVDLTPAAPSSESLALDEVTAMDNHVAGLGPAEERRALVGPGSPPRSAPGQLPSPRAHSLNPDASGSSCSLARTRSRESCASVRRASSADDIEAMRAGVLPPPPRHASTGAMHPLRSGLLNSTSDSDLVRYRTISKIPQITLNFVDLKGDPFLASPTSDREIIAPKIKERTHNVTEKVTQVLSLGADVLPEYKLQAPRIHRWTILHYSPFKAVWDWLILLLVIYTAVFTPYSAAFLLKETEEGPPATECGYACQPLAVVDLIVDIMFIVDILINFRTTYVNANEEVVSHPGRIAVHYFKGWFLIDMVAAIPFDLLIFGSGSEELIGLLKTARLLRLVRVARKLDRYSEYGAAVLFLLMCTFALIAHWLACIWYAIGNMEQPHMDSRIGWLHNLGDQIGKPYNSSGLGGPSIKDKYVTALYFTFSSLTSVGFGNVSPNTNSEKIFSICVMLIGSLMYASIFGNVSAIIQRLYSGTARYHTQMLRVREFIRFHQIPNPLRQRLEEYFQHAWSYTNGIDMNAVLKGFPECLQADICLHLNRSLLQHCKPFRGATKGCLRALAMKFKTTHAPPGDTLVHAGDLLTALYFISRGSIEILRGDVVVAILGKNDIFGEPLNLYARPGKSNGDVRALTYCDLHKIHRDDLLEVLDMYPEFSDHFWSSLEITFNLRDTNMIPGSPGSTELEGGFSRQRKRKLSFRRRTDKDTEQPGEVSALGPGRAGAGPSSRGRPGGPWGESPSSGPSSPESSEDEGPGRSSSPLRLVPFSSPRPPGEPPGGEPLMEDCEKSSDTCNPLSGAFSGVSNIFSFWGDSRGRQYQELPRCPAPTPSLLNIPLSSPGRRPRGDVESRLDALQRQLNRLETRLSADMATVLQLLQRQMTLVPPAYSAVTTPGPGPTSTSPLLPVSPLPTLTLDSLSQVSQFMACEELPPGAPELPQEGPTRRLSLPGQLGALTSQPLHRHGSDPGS
Excerpt: This example is intended to assess the blocking effect of the compounds of the present disclosure and positive compound 1 (see the compound of Example 7 on page 125 of WO2019239319A1) on hERG potassium currents in a stable cell strain transfected with an hERG potassium channel by a manual patch-clamp assay. The structure of positive compound 1 is shown below:
The cells used in this experiment were from a CHO cell line (provided by Sophion Bioscience, Denmark) transfected with hERG cDNA and stably expressing hERG channel at cell passage number of P5. Cells were cultured in a medium containing the following components (all from Invitrogen): Ham's F12 medium, 10% (v/v) inactivated fetal bovine serum, 100 μg/mL hygromycin B, and 100 μg/mL geneticin.
CHO hERG cells were grown in a culture dish containing the above culture medium and cultured in an incubator at 37° C. with 5% CO2. 24-48 h before the electrophysiological experiment, CHO hERG cells were transferred to round slides placed in the culture dish and grown in the same culture medium and culture conditions as above. The density of CHO hERG cells on each round slide was required to achieve the requirement that most cells were independent and individual.
In this experiment, a manual patch-clamp system (HEKA EPC-10 signal amplifier and digital conversion system, purchased from HEKA Electronics, Germany) was used for whole cell current recording. Round slides with CHO hERG cells grown on the surface were placed in an electrophysiological recording chamber under an inverted microscope. The chamber was continuously perfused with extracellular fluid (approximately 1 mL/min). The experimental procedures were performed by conventional whole-cell patch-clamp current recording technology. Unless otherwise stated, the experiment was performed at room temperature ([…]). The cells were clamped at a voltage of −80 mV. The cell clamp voltage was depolarized to +20 mV to activate the hERG potassium channel, and then clamped to −50 mV 5 s later to eliminate inactivation and generate tail currents. The tail current peak was used as a value for the numeral value of the hERG current. After the hERG potassium currents recorded in the above step were stable under the continuous extracellular fluid perfusion in the recording chamber, the drug to be tested could be added for perfusion until the inhibitory effect of the drug on the hERG current reached a stable state. Generally, the last superposition of 3 consecutive current recording lines is used as a criterion for determining whether a stable state is reached. […]
The experimental data were analyzed by data analysis software supplied by HEKA Patchmaster(V2x73.2), Microsoft Excel, and Graphpad Prism 5.0. […]

[4] = molecular target: CYP3A4M (Homo sapiens (Human), UniProt P08684); test: Inhibition of human liver microsome CYP450 enzyme, CYP3A4M midazolam site; assay type: in vitro ADME; settings: human liver microsomes, probe substrate midazolam
Chain of CYP3A4M (P08684 whole entry): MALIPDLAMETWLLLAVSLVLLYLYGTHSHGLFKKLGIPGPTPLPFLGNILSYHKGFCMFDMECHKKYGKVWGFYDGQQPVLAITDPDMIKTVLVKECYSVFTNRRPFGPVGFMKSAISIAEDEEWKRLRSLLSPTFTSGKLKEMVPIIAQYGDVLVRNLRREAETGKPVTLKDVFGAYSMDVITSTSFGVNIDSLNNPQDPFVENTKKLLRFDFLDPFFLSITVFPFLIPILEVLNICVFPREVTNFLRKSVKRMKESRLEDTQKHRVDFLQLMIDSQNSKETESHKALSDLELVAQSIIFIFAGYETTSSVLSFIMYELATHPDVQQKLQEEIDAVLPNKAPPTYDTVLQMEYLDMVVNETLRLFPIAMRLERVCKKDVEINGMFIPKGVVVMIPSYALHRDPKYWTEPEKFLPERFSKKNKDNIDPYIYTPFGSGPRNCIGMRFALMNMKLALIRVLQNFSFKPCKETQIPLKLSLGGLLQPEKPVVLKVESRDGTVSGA
Description: as §1, §2, §3, §4, §5

Chain of CYP1A2 (P05177 whole entry): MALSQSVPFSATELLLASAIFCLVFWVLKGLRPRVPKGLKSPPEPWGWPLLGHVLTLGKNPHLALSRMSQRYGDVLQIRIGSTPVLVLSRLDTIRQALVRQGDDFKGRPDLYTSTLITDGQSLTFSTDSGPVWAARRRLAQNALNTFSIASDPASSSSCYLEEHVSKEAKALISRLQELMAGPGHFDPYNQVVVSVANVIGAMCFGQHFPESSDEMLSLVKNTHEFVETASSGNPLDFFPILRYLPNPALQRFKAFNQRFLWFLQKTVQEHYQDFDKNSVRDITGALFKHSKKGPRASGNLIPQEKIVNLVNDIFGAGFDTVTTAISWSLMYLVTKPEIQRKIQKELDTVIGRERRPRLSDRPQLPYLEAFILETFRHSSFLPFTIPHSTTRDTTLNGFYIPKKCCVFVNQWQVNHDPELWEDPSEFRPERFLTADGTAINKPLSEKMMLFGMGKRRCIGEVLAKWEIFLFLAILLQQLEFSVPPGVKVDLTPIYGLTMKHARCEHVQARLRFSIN

SMILES | IC50 [1] | IC50 [2] | IC50 [3] | IC50 [4]
C[C@]1(c2ccc(Cl)cc2F)Oc2cccc(C3CCN(Cc4nc5ccc(C(=O)O)cc5n4C[C@@H]4CCO4)CC3)c2O1 [Positive compound 1, reference compound] | 12.5 µM | 7.4 µM | 4.6 µM | 25.5 µM
O=C(O)c1ccc2nc(CN3CCC(c4cccc5c4O[C@@H](c4ccc(Cl)cc4F)CO5)CC3)n(C[C@@H]3CCO3)c2c1 [Example 4, 2-((4-((S)-3-(4-Chloro-2-fluorophenyl)-2,3-dihydrobenzo[b][1,4]dioxan-5-yl)piperidin-1-yl)methyl)-1-(((S)-oxetan-2-yl)methyl)-1H-benzo[d]imidazole-6-carboxylic acid] | > 30 µM | > 30 µM | 10.1 µM | > 30 µM
O=C(O)c1ccc2nc(CN3CCC(c4cccc5c4O[C@@H](c4ccc(Cl)cc4F)CO5)CC3)n(C[C@@H]3CCO3)c2n1 [Example 5, 2-((4-((S)-3-(4-Chloro-2-fluorophenyl)-2,3-dihydrobenzo[b][1,4]dioxan-5-yl)piperidin-1-yl)methyl)-3-((S)-oxetan-2-ylmethyl)-3H-imidazo[4,5-b]pyridine-5-carboxylic acid] | > 30 µM | > 30 µM | 25.9 µM | > 30 µM

— patent US20230322756A1, “FUSED IMIDAZOLE DERIVATIVE, PREPARATION METHOD THEREFOR, AND MEDICAL USE THEREOF” (JIANGSU HENGRUI MEDICINE CO., LTD., priority 2020, published 2023)
